According to US12691056B2 (priority 2020, dated 2026):

Assays:
[1] = test system: CYP1A1, CYP1A2, CYP2A6, CYP2B6, CYP2C8, CYP2C9, CYP2C19, or CYP2E1 enzymes; conditions: cited from earlier work
[2] = cited from earlier work
[3] = test system: CYP3A4 and CYP2D6 enzymes; conditions: in vitro studies; cited from earlier work
[4] = aripiprazole intramuscular depot formulation; cited from earlier work
[5] = Inter-Individual Variability (CV %)
[6] = final combined popPK model, Fixed

SMILES	lower apparent clearance in CYP2D6 poor metabolizers (CYP2D6 PM subjects)	IIV on Vc [5]	IIV on deltoid IM Ka [5]	IIV on gluteal IM Ka [5]	IIV on oral Ka (Inter-Individual Variability (CV %), Fixed)	CL Apparent clearance for subjects who are not poor CYP2D6 metabolizers [6] [Fixed L/hr]	CLpm Apparent clearance for subjects who are poor CYP2D6 metabolizers [6] [Fixed Lhr]	IM Ka_BMI Effect of BMI on IH Ka: power for (BMI/28) [6] [Fixed]	IM Ka_male Proportional shift of IM Ka for males [6] [Fixed]	IMKa Gluteal IM 1st order absorption safe constant [6] [h⁻¹]	Q1 Inter-compartmental clearance 1 [6] [Fixed L/hr]	Q2 Inter-compartmental clearance 2 [6] [Fixed L/hr]	substrate of CYP1A1, CYP1A2, CYP2A6, CYP2B6, CYP2C8, CYP2C9, CYP2C19, or CYP2E1 enzymes [1]	absolute oral bioavailability ([2]; tablet formulation)	enzyme for N-dealkylation [3]	enzymes for dehydrogenation and hydroxylation [3]	share of the parent drug exposure in plasma [4]	share of aripiprazole AUC in plasma ([2]; at steady-state)
O=C1CCc2ccc(OCCCCN3CCN(c4cccc(Cl)c4Cl)CC3)cc2N1 [aripiprazole, 7-[4-[4-(2,3-dichlorophenyl)-1-piperazinyl]butoxy]-3,4-dihydrocarbostyril]	approximately 50%	2.18 (148%)	0.237 (48.9%)	0.359 (60.0%)	0.434 (65.9%)	3.71	1.88	−0.975	0.346	0.000904	0.591	28.8	not a substrate	about 87%	catalyzed by CYP3A4	CYP3A4 and CYP2D6 enzymes are responsible	–	–
O=c1ccc2ccc(OCCCCN3CCN(c4cccc(Cl)c4Cl)CC3)cc2[nH]1 [dehydro-aripiprazole]	–	–	–	–	–	–	–	–	–	–	–	–	–	–	–	–	about 29%	about 40%
